Measured values from patent publication US7666846B2, “Cholesterol-containing compounds and their use as immunogens against Borrelia burgdorferi” (The United States of America as represented by the …, priority 2003, dated 2010).
Entries after “also recorded” stand apart in the source; their conditions may differ.

Assays:
rabbits = assay: Immunization of rabbits with glycolipid, antibody titers by ELISA; type: in vivo, New Zealand White rabbits
Experimental: FIG. 10 is a graph showing antibody titers of sera from rabbits immunized with the glycolipid of formula B. Antibody titers were measured by an ELISA, as described below, and represent an average of four different rabbit sera, diluted 1:100, each tested in three independent assays. Open bars, IgG titers; gray bars, IgM titers; brackets, standard deviation.
(§1) Immunization and Immunostaining—Groups of ten female NIH Swiss albino mice (5-6 weeks old, general purpose) were immunized intraperitoneally with 2 doses of BBGL-II emulsified in complete Freund's adjuvant (first dose) or incomplete Freund's adjuvant (second dose) two weeks apart. The doses contained 10 μg BBGL-II per 0.1 ml and were administered IP in 0.1 ml. Alternatively, mice were immunized three times, 2 weeks apart, with 10 μg of BBGL-II emulsified in 0.1 ml of DMSO, squalene, or PBS. Mice were bled 2 weeks after the second dose and the sera thus obtained was kept at −20° C. until used. Rabbits (females, New Zealand White, 8 weeks old) were immunized with two doses of BBGL-II, 75 μg each, in Fruend's adjuvant, administered i.m. and i.c. in 20×0.05 ml.

mice = assay: Immunization of mice with glycolipid, antibody titers by ELISA; type: in vivo, NIH Swiss albino mice
Experimental: FIG. 11 is a graph showing antibody titers of sera from ice immunized with the glycolipid of formula B. Mice (10 mice per group) were immunized as described below, with the glycolipid of formula B in Freund's adjuvant (CFA); PBS; DMSO, or squalene. Antibody titers were determined by an ELISA in sera diluted 1:100, and are represented as an average of three independent assays. Brackets, standard deviation.
as §1

[1] = Antibodies induced by BBGL-III (data not shown); type: in vivo
[2] = test system: immobilized polymixin B on agarose; assay: Affinity chromatography on Detoxi-Gel Endotoxin Removing Gel; type: binding; details: sonicated B. burgdorferi cells loaded; bound material eluted with 1% deoxycholic acid; TLC and immunolabeling
Experimental: Affinity Chromatography—BBGL-II was also purified by affinity chromatography using Detoxi-Gel Endotoxin Removing Gel (Pierce, Rockford, Ill.). Borrelia cells were washed 5 times with PBS, resuspended in the same buffer, and disrupted by ultrasonic treatment for 30 seconds, in a Branson sonifier operated at 50% duty cycles at 100 W. Membranes were separated from the soluble fraction by centrifugation at 37000 g for 30 minutes, and the supernatant (1 ml containing 1 mg total protein) was loaded on a detoxi-gel (agarose-immobilized-polymixin B) column (0.9×10 cm). The column was washed with 10 bed-volumes of PBS. Elution of the bound material was performed by washing with 10 bed volumes of PBS containing 1% Deoxycholic acid (w/v), according to the manufacturer's instructions. The bound fraction was dialyzed against distilled water, lyophilized, and lipids were extracted as mentioned.
This resin consists of immobilized polymixin B on agarose, and is used for the removal of endotoxins by binding to the lipid A portion of LPS.

[3] = ELISA and TLC overlay assays of antibodies raised against the synthetic analog; type: in vivo
Experimental: Immunostaining of membrane lipids was performed as previously described (15). Developed chromatogram plates, containing lipid spots, were coated with polyisobutyl-methacrylate solution (0.05% in hexane) and allowed to dry. The plates were then blocked with PBS containing 1% BSA and 0.05% tween 20 for 15 minutes, and then incubated with anti BBGL-II antiserum, diluted 1:100 in PBS-BSA buffer for 1 hour at 22° C. The plates were rinsed 5 times with PBS-BSA buffer and incubated with alkaline phosphatase-conjugated rat anti mouse IgG (KPL, MD) diluted 1:25,000 in PBS-BSA for 1 hour at 22° C. The plates were then washed, and developed using BCIP/NBT (KPL, MD).

Molecule: CCCCCCCCCCCCCCCC(=O)OC[C@H]1O[C@@H](O[C@H]2CC[C@@]3(C)C(=CC[C@H]4[C@@H]5CC[C@H]([C@H](C)CCCC(C)C)[C@@]5(C)CC[C@@H]43)C2)[C@H](O)[C@@H](O)[C@H]1O [BBGL-II, cholesteryl 6-O-palmitoyl-β-D-galactopyranoside]
- isotype of elicited antibodies (rabbits): mostly of the IgM isotype
- specificity of elicited antibodies (rabbits): specific to the homologous glycolipid
- induction of antibodies (rabbits; Freund's adjuvant): Specific antibodies were induced; also recorded: elicited antibodies
- relative immunogenicity by formulation (mice; in PBS (likely as micelles) compared with solute in DMSO or squalene): more immunogenic than as a solute in DMSO or squalene
- isotype of elicited antibodies (mice; mice): mostly of the IgM isotype
- specificity of elicited antibodies (mice; mice): specific to the homologous glycolipid
- induction of antibodies (mice; mice injected with various formulations): Specific antibodies were induced; also recorded: elicited antibodies
- antibody titers by formulation (mice; with Freund's adjuvant, compared with PBS, DMSO, squalene): Highest titers

Molecule: 1,2-diacyl-3-[O-α-D-galactopyranosyl]-sn-glycerol [BBGL-III]
- isotype of induced antibodies ([1]; data not shown): mostly IgM
- induction of antibodies ([1]; data not shown, species not stated): induced antibodies; also recorded: elicited antibodies
- reactivity of induced antibodies with BBGL-II and BBGL-III ([1]; in vivo): reacted with both glycolipids
- binding to Detoxi-Gel (polymixin B) column [2]: not bound to the column

Molecule: CC(C)CCCC(C)C1CCC2C3CC=C4CC(OC5OC(COC(=O)CCCCCCCCCCCCCCCN=[N+]=[N-])C(O)C(O)C5O)CCC4(C)C3CCC12C (stereo not shown) [compound 19]
- antibodies raised, compared with purified native BBGL-II [3]: to the same extent as with the purified native BBGL-II
